These results are taken from patent US20080014133A1, “Extraction Of Radionuclides By Crown Ether-Containing Extractants” (priority 2004, published 2008).

What all share (format): physicochemical
The nature of data set [1]: Influence of nitric acid concentration on cesium extraction from solution No.1. Conditions: for Distribution ratios of cesium: solution No.1. The source says: The dependence of extraction of cesium by organic solutions DTBDB18C6 in fluoropentanol n3 and DB21C7 in Fluoroheptanol n3 at a concentration of nitric acid in a starting solution was studied. Solution No.1 whose composition is listed in Table 2 was used as a starting solution.

A short description of data set [2]: Extraction of cesium under dynamic conditions (7.2). The source says:
(§1) The scheme of the process and the conditions of extraction of cesium by the method according to the invention are similar to those described above in 7.1, but the organic phase for extraction of cesium includes solutions DB21C7 in a concentration of about 0.05 mol/l in an organic solvent containing synthanol in an amount of 5% by volume and Fluoroheptanol n3 in an amount of about 95% by volume.
(§2) During the operation of the experimental facility radiometric monitoring devices were used to control the concentration of strontium in the refined products, re-extracts and reclaims, as well as the concentration of the crown ethers in the extracted products. The technological characteristics of the process and solubility of the crown ether (averaged values of several experiments) are given in Table 16.

Data set [3] is described as follows: Concentration of crown ether in extracted products, dynamic cesium extraction (7.2).
Source text: as §1, §2

The nature of data set [4]: Distribution ratio of cesium extracted in organic solutions of crown ethers (Table 1). To be noted: crown ether 0.1 mole/l in Fluoroheptanol n3; Sr and Cs 1 g/l, nitric acid about 3.0 mol/l. The method, then: (§3) Study was carried out for determining the distribution ratios of radionuclides, for example, strontium or cesium to be extracted by the extractants according to the invention containing various crown ethers as a complexing agent: bis(tert-butylbenzo)-18-crown-6 (subsequently referred to as DTBDB18C6), di-isooctylbenzo-18-crown-6 (subsequently referred to as DIODB18C6), bis(tert-butylcyclohexane-18-crown-6 (subsequently referred to as DTBDCH18C6), di-isooxyldicyclohexane-18-crown-6 (subsequently referred to as DIODCH18C6), bicyclohexane-18-crown-6 (subsequently referred to as DCH18C6) or dibenzo-21-crown-7 (subsequently referred to as DB21C7), in an organic solvent according to the invention: polyfluorinated telomeric alcohol 1,1,7-trihydrododecafluoroheptanol-1 (subsequently referred to as fluoroheptanol n3).
(§4) For comparison, the distribution ratios of strontium and cesium were determined using extractants containing similar crown ethers in another organic solvent (decane).
(§5) Taken for the tests were experimental aqueous nitrate solutions containing strontium and cesium in a concentration of 1 g/l with a content of nitric acid of about 3.0 mol/l.

Data set [5] can be described thus: Concentration of crown ether in extracted products, dynamic strontium extraction (7.1). The source says: A starting aqueous solution whose composition and concentration of the components are given in Table 3 for a solution No.1 was contacted with the extractant according to the invention containing 0.05 mole/l of DCH18C6 in a solvent containing 20% by volume of synthanol and 80% by volume of Fluoroheptanol n3 in a continuous countercurrent process on a facility with extractors such as “mixer-settler” devices with impulse agitation and phase transportation. The extraction included eight steps of extraction, two washing steps, eight re-extraction steps and two steps of regeneration of the reused extractant.
When running the facility, radiometric monitoring devices were used to control the concentration of strontium in the refined products, re-extracts and reclaims, as well as the concentration of the crown ethers in the extracted products.

Data set [6] can be described thus: Distribution ratio of strontium extracted in organic solutions of crown ethers (Table 1). Conditions: crown ether 0.1 mole/l in Fluoroheptanol n3; Sr and Cs 1 g/l, nitric acid about 3.0 mol/l. The method, then: as §3, §4, §5

For `c1ccc2c(c1)OCCOCCOCCOc1ccccc1OCCOCCO2` [DB21C7, dibenzo-21-crown-7], the “Concentration of nitric acid at the maximum of cesium extraction” value in data set [1] is on record as ~3.0 mol/l. For the same molecule, the “Distribution ratios of cesium” value in data set [1] (nitric acid 0 mol/l, Fluoroheptanol n3) turned out to be 0.25; in data set [1] (nitric acid 0.1 mol/l), 1.0; in data set [1] (nitric acid 0.5 mol/l) it was 3.2; in data set [1] (nitric acid 1.0 mol/l), 7.8; in data set [1] (nitric acid 2.0 mol/l), 10.2; in data set [1] (nitric acid 3.0 mol/l), 12.2. Besides, the “Distribution ratios of cesium” value in data set [1] (nitric acid 4.0 mol/l) was 11.4; in data set [1] (nitric acid 5.0 mol/l), 10.0; in data set [1] (nitric acid 6.0 mol/l), 8.0; in data set [1] (nitric acid 7.0 mol/l) it was 6.2; in data set [1] (nitric acid 8.0 mol/l), 5.0. The “Content of cesium in the extracted products in percent of the feedstock” value was 94.5% of the feedstock in data set [2] (Re-extract); 4.15% of the feedstock in data set [2] (Reclaim); 1.35% of the feedstock in data set [2] (Refined product, 0.05 mol/l DB21C7, Synthanol 5% / Fluoroheptanol n3 95%, solution No.1). In data set [2] (dynamic conditions 7.2), the “Cesium yield in a saltless product” value was “about 95%”. For the same molecule, in data set [2] (dynamic conditions 7.2), the Extraction of cesium is > 98%. Further, the “Concentration of the crown ether in the extracted products” value in data set [3] (Re-extract) came to 53 Mg/l; in data set [3] (Reclaim), 18 Mg/l; in data set [3] (Refined product), 27 Mg/l. For the same molecule, in data set [4], the “Distribution ratio Cesium” value was determined as 10.7.
Consider `C1CCC2OCCOCCOC3CCCCC3OCCOCCOC2C1` (stereo not shown) [DCH18C6, bicyclohexane-18-crown-6], for which the entries for the “Concentration of crown ether in the extracted products” value in data set [5] (Re-extract), in data set [5] (Reclaim) and in data set [5] (Refined product) were 172 Mg/l, 30 Mg/l and 80 Mg/l, respectively. The “Distribution ratio Strontium” value in data set [6] stood at 1.6.
